# Assay results: patent US20260109714A1, “PYRIMIDINE-FUSED RING COMPOUND, AND PREPARATION METHOD THEREFOR AND USE THEREOF” (GENFLEET THERAPEUTICS (SHANGHAI) INC., priority 2022, published 2026)
# Columns and labels:
# AGS p-ERK = assay: Cell assay for p-ERK (HTRF, Advance ERK phospho-T202/Y204 kit); assay type: cell-based, human; settings: AGS cells (KRAS G12D), 3 hrs with compound, inhibition of p-ERK level
# Protocol: AGS was purchased from ATCC, Article No.: CRL-1739; F12K was purchased from Gibco, Article No.: 21127-022; FBS was purchased from Gibco, Article No.: 10099-141C; the trypsin (containing EDTA) was purchased from Gibco, Article No.: 25200-072; DMSO was purchased from VWRAMRESCO, Article No.: 0231-500ML; the 96-well cell culture plate was purchased from Corning, Article No.: 3599; the white-bottom opaque 96-well plate was purchased from Cisbio, Article No.: 66PL96025; Advance ERK phospho-T202/Y204 kit was purchased from Cisbio, Article No.: 64AERPEH; the cell counter was purchased from CHEMOMETEC, model: NC-200; the microplate reader was purchased from PerkinElmer, model: Envison.
# AGS, an endogenous human gastric adenocarcinoma cell line with KRAS^G12D mutation, was cultured in F12K+10% FBS medium. On the first day of the experiment, cells in logarithmic growth period were digested with trypsin (containing EDTA), collected and counted, and about 20,000 cells/well were inoculated in a 96-well cell culture plate and cultured overnight in an incubator with 5% CO2. 1000× compound stock solutions with gradient concentrations of 3.16 times were prepared with DMSO, and 200-fold diluted to 5× compound stock solutions with the above culture medium. The 5× compound stock solution was added to each cell culture well on the second day after cell inoculation, to give a final concentration of 1× and DMSO content of 0.1%. DMSO was used as experimental control. After adding the compound, the cells were continuously cultured for 3 hrs. Then, the culture medium in the well was removed, and 50 μl/well of cell lysis buffer (from Advanced ERK phospho-T202/Y204 kit, the same hereinafter) was added, and mixed uniformly. The cells were cultured for 30 min. Then 16 μl of the mixture was transferred to a white-bottom opaque 96-well plate, and 16 μl of the cell lysis buffer was added to an additional well and used as a blank. After that, 4 μl of p-ERK HTRF antibody mixed solution (from Advanced ERK Phos Pho-T202/Y204 Kit) was added to each well. After incubation for 4 hrs, the fluorescence value (RLU) of HTRF was read on a microplate reader. The inhibition rate of the compound on p-ERK level was calculated by the formula IR (%)=(RLU of control−RLU of compound)/(RLU of control−RLU of blank)×100%. The compound concentration and the corresponding inhibition rate on p-ERK level in the cells were fitted by using Prism 8 four-parameter method, and the IC50 value was calculated.
# [1] = test system: AGS human gastric cancer cell line with KRAS G12D mutation; assay: Cell proliferation inhibition experiment, 3D CellTiter-Glo, AGS; assay type: cell-based; settings: AGS cells, 3D spheroid, 5 days
# Description: (§1) AsPC-1 was purchased from ATCC, Article No.: CRL-1682; AGS was purchased from ATCC, Article No.: CRL-1739; RPMI1640 was purchased from Gibco, Article No.: 11875-093 2235123; F12K was purchased from Gibco, Article No.: 21127-022; FBS was purchased from Gibco, Article No.: 10099-141C; the trypsin (containing EDTA) was purchased from Gibco, Article No.: 25200-072; CellTiter Glo-3D was purchased from Progema, Article No.: G9683; the 384-well spheroid plate was purchased from Corning, Article No.: 3830; the white-bottom opaque 384-well plate was purchased from Corning, Article No.: 3570; the cell counter was purchased from CHEMOMETEC, model: NC-200; the microplate reader was purchased from PerkinElmer, model: Envison;
# (§2) AsPC-1, an endogenous human pancreatic cancer cell AsPC-1 with KRAS^G12D mutation, was cultured in RPMI-1640 medium containing 10% FBS. AGS, a human gastric cancer cell line with KRAS^G12D mutation, was cultured in F-12K medium containing 10% FBS. Cells in logarithmic growth period were digested with trypsin (containing EDTA), collected and counted. 800 AsPC-1 cells/well or 400 […] were inoculated in a 384-well spheroid plate, and cultured overnight in an incubator with 5% CO2 to establish a 3D cell model. 1000× compound stock solutions with gradient concentrations of 3.16 times were prepared with DMSO, and 100-fold diluted to 10× compound stock solutions with the culture medium. The 10× compound stock solution was added to each cell culture well on the second day after cell inoculation, to give a final concentration of 1× and DMSO content of 0.1%. DMSO was used as the control, and the culture medium was used as the blank. After the compound was added, the cells were cultured for 5 days. 30 μl CellTiter-Glo working solution was added to each well, and mixed uniformly. The cells were incubated for 30 min, and allowed to stand at room temperature for 30 min. 40 μl of the mixture was transferred to a white-bottom opaque 384-well plate, and the luminescence was read on a microplate reader. The inhibition rate on cell proliferation was calculated by a formula: IR (%)=(RLU of control−RLU of compound)/(RLU of control−RLU of blank)×100%. The gradient concentrations of the compound and the corresponding inhibition rates were fitted by using XLFit four-parameter method, and the IC50 value was calculated. […] The results of some exemplary compounds are shown in Table 2 below (—means not tested).
# [2] = test system: AsPC-1 human pancreatic cancer cell with KRAS G12D mutation; assay: Cell proliferation inhibition experiment, 3D CellTiter-Glo, AsPC-1; assay type: cell-based; settings: AsPC-1 cells, 3D spheroid, 5 days
# Description: as §1, §2
Structure (SMILES),IC50 (AGS p-ERK; Homo sapiens) [nM],"IC50 ([1]; Homo sapiens, 120 h) [nM]","IC50 ([2]; Homo sapiens, ASPC1, 120 h) [nM]",IC50 (AGS p-ERK) [nM],IC50 [1] [nM],IC50 [2] [nM]
"C[C@@H]1Oc2nc(-c3cc(N)cc(Cl)c3C(F)(F)F)cc3nc(OC[C@@]45CCCN4CC(=C(F)F)C5)nc(c23)N2C[C@H]3CC[C@H](N3)[C@@H]12 [Z1085, 3-chloro-5-((5S,5aS,6S,9R)-12-(((S)-2-(difluoromethylene)tetrahydro-1H-pyrrolizin-7a(5H)-yl)methoxy)-5-methyl-5a,6,7,8,9,10-hexahydro-5H-4-oxa-3,10a,11,13,14-pentaaza-6,9-methanonaphtho[1,8-ab]hepten-2-yl)-4-(trifluoromethyl) aniline]",0.78,0.88,3.04,–,–,–
"C[C@@H]1Oc2nc(-c3cc(N)cc4cccc(Cl)c34)c(F)c3nc(OC[C@]45CCCN4CC(F)(F)C5)nc(c23)N2C[C@H]3CC[C@H](N3)[C@@H]12 [Z737, 5-chloro-4-((5S,5aS,6S,9R)-12-(((R)-2,2-difluorotetrahydro-1H-pyrrolizin-7a(5H)-yl)methoxy)-1-fluoro-5-methyl-5a,6,7,8,9,10-hexahydro-5H-4-oxa-3,10a,11,13,14-pentaaza-6,9-methanonaphtho[1,8-ab]hepten-2-yl)naphthalen-2-amine]",–,–,–,15.3,34,44.2
C#Cc1c(F)ccc2cccc(-c3nc4c5c(nc(OC[C@]67CCCN6CC=C7C)nc5c3F)N3C[C@H]5CC[C@H](N5)[C@H]3[C@H](C)O4)c12 [Z749],1.91,7.13,11.5,–,–,–
"C[C@@H]1Oc2nc(-c3cc(N)cc4ccc(F)c(F)c34)c(F)c3nc(OC[C@]45CCCN4CC(F)(F)C5)nc(c23)N2C[C@H]3CC[C@H](N3)[C@@H]12 [Z740, 4-((5S,5aS,6S,9R)-12-(((R)-2,2-difluorotetrahydro-1H-pyrrolizin-7a(5H)-yl)methoxy)-1-fluoro-5-methyl-5a,6,7,8,9,10-hexahydro-5H-4-oxa-3,10a,11,13,14-pentaaza-6,9-methanonaphtho[1,8-ab]heptan-2-yl)-5,6-difluoronaphthalen-2-amine]",6.08,18,26,–,–,–
"C#Cc1cccc2cc(N)cc(-c3nc4c5c(nc(OC[C@@]67CCCN6CCC7=C(F)F)nc5c3F)N3C[C@H]5CC[C@H](N5)[C@H]3[C@H](C)O4)c12 (single isomer, unassigned) [Z960]",0.25,3.96,1.58,–,–,–
"C#Cc1c(F)ccc2cccc(-c3nc4c5c(nc(OC[C@@]67CCCN6CCC7=C)nc5c3F)N3C[C@H]5CC[C@H](N5)[C@H]3[C@H](C)O4)c12 [Z638, (5S,5aS,6S,9R)-2-(8-ethynyl-7-fluoronaphthalen-1-yl)-1-fluoro-5-methyl-12-(((S)-1-methylenetetrahydro-1H-pyrrolizin-7a(5H)-yl)methoxy)-5a,6,7,8,9,10-hexahydro-5H-4-oxa-3,10a,11,13,14-pentaaza-6,9-methanonaphtho[1,8-ab]heptene]",–,–,–,7.79,19.7,32
"C[C@@H]1Oc2nc(-c3cc(N)cc(Cl)c3C(F)(F)F)c(F)c3nc(OC[C@]45CCCN4CC(F)(F)C5)nc(c23)N2C[C@H]3CC[C@H](N3)[C@@H]12 [Z743, 3-chloro-5-((5S,5aS,6S,9R)-12-(((R)-2,2-difluorotetrahydro-1H-pyrrolizin-7a(5H)-yl)methoxy)-1-fluoro-5-methyl-5a,6,7,8,9,10-hexahydro-5H-4-oxa-3,10a,11,13,14-pentaaza-6,9-methanonaphtho[1,8-ab]hepten-2-yl)-4-(trifluoromethyl) aniline]",0.84,1.95,2.16,–,–,–
C#Cc1cccc2cc(N)cc(-c3nc4c5c(nc(OCC6(CN7CCC(=C(F)F)C7)CC6)nc5c3F)N3C[C@H]5CC[C@H](N5)[C@H]3[C@H](C)O4)c12 [Z744],0.51,2.86,1.99,–,–,–
Cc1cc(-c2nc3c4c(nc(OCC5(CN6CCOCC6)CC5)nc4c2F)N2C[C@H]4CC[C@H](N4)C2[C@H](C)O3)c(C)c(N)c1C1CC1 (stereo partly drawn) [Z716],81.8,48.6,89.2,–,–,–
"C=C1CCN2CCC[C@]12COc1nc2c3c(nc(-c4cc(N)cc(Cl)c4C(F)(F)F)c(F)c3n1)O[C@@H](C)[C@@H]1[C@@H]3CC[C@H](CN21)N3 [Z963, 3-chloro-5-((5S,5aS,6S,9R)-1-fluoro-5-methyl-12-(((R)-1-methylenetetrahydro-1H-pyrrolizin-7a(5H)-yl)methoxy)-5a,6,7,8,9,10-hexahydro-5H-4-oxa-3,10a,11,13,14-pentaaza-6,9-methanonaphtho[1,8-ab]heptadien-2-yl)-4-(trifluoromethyl) aniline]",–,–,–,0.39,0.21,1.69
"C#Cc1cccc2cccc(-c3nc4c5c(nc(OC[C@@]67CCCN6CCC7=C)nc5c3F)N3C[C@H]5CC[C@H](N5)[C@H]3[C@H](C)O4)c12 (single isomer, unassigned) [Z702]",–,–,–,11.1,26.8,51.9
"C#Cc1cccc2cc(N)cc(-c3nc4c5c(nc(OC[C@]67CCCN6CCC7=C(F)F)nc5c3F)N3C[C@H]5CC[C@H](N5)[C@H]3[C@H](C)O4)c12 [Z959, 4-((5S,5aS,6S,9R)-12-(((R)-1-(difluoromethylene)tetrahydro-1H-pyrrolizin-7a(5H)-yl)methoxy)-1-fluoro-5-methyl-5a,6,7,8,9,10-hexahydro-5H-4-oxa-3,10a,11,13,14-pentaaza-6,9-methanonaphtho[1,8-ab]hepten-2-yl)-5-ethynylnaphthalen-2-amine]",1.59,7.27,7.21,–,–,–
"[2H]C([2H])([2H])[C@@H]1Oc2nc(-c3cc(N)cc4cccc(C#C)c34)c(F)c3nc(OCC4(CN5CC[C@@H](F)C5)CC4)nc(c23)N2C[C@H]3CC[C@H](N3)[C@@H]12 [Z964, 5-ethynyl-4-((5S,5aS,6S,9R)-1-fluoro-12-((1-(((R)-3-fluoropyrrolidin-1-yl)methyl)cyclopropyl)methoxy)-5-(methyl-d3)-5a,6,7,8,9,10-hexahydro-5H-4-oxa-3,10a,11,13,14-pentaaza-6,9-methanonaphtho[1,8-ab]hepten-2-yl)naphthalen-2-amine]",0.38,0.51,1.58,–,–,–
